Source: the supplement of paper PMC13380429

Columns and labels:
Conditions in all cases: 72 h
Vero E6 [1] = assay: relative viability EC50 (midpoint between 100% and the lowest measured viability); higher = less toxic
Caco-2 [2] = assay: as above
U2OS [3] = assay: as above
HepG2 [4] = assay: as above
Calu-3 [5] = assay: as above
Vero E6 [6] = assay: drug sensitivity score (DSS) for viability; higher = more toxic; extreme values may be limits of the assay
Caco-2 [7] = assay: as above
U2OS [8] = assay: as above
HepG2 [9] = assay: as above
Calu-3 [10] = assay: as above
Vero E6 [11] = assay: cell viability relative to DMSO; higher = less toxic
Caco-2 [12] = assay: as above
U2OS [13] = assay: as above
HepG2 [14] = assay: as above
Calu-3 [15] = assay: as above

Row | SMILES | relative viability EC50 (Vero E6 [1]) | relative viability EC50 (Caco-2 [2]) | relative viability EC50 (U2OS [3]) | relative viability EC50 (HepG2 [4]) | relative viability EC50 (Calu-3 [5]) | drug sensitivity score (Vero E6 [6]) | drug sensitivity score (Caco-2 [7]) | drug sensitivity score (U2OS [8]) | drug sensitivity score (HepG2 [9]) | drug sensitivity score (Calu-3 [10]) | cell viability (Vero E6 [11]; 1 nM) | cell viability (Vero E6 [11]; 10 nM) | cell viability (Vero E6 [11]; 100 nM) | cell viability (Vero E6 [11]; 1000 nM) | cell viability (Vero E6 [11]; 10000 nM) | cell viability (Caco-2 [12]; 1 nM) | cell viability (Caco-2 [12]; 10 nM) | cell viability (Caco-2 [12]; 100 nM) | cell viability (Caco-2 [12]; 1000 nM) | cell viability (Caco-2 [12]; 10000 nM) | cell viability (U2OS [13]; 1 nM) | cell viability (U2OS [13]; 10 nM) | cell viability (U2OS [13]; 100 nM) | cell viability (U2OS [13]; 1000 nM) | cell viability (U2OS [13]; 10000 nM) | cell viability (HepG2 [14]; 1 nM) | cell viability (HepG2 [14]; 10 nM) | cell viability (HepG2 [14]; 100 nM) | cell viability (HepG2 [14]; 1000 nM) | cell viability (HepG2 [14]; 10000 nM) | cell viability (Calu-3 [15]; 1 nM) | cell viability (Calu-3 [15]; 10 nM) | cell viability (Calu-3 [15]; 100 nM) | cell viability (Calu-3 [15]; 1000 nM) | cell viability (Calu-3 [15]; 10000 nM)
1 | CC(C)[C@@H]1C(=O)N(S(C)(=O)=O)[C@@H]2CCN(C(=O)/C=C/CN3CCCCC3)[C@H]21 | > 10 µM | > 10 µM | > 10 µM | > 10 µM | > 10 µM | 0 | 0 | 0 | 0.1 | 0 | 97.2% | 102% | 93.4% | 98.6% | 91.4% | 110% | 94.3% | 94.4% | 97.6% | 94.4% | 101% | 98.8% | 103% | 99.1% | 101% | 92.2% | 92.6% | 104% | 104% | 85.3% | 95.9% | 95.4% | 102% | 103% | 100%
2 | CC1(C)C(=O)N(c2ccc(C#N)c(C(F)(F)F)c2)C(=O)N1CCCCO | > 10 µM | > 10 µM | > 10 µM | > 10 µM | > 10 µM | 0 | 0.4 | 0 | 0 | 0 | 95.6% | 103% | 100% | 103% | 99.2% | 104% | 94.8% | 90.6% | 90.7% | 89.4% | 99.9% | 102% | 96.5% | 97.6% | 98.3% | 98.8% | 93.9% | 103% | 91.1% | 91.6% | 104% | 114% | 96% | 97.6% | 91.9%
3 | CC1(C)CCC(C)(C)c2cc(C3(c4ccc5cc(C(=O)O)ccc5c4)SCCS3)ccc21 | > 10 µM | > 10 µM | > 10 µM | > 10 µM | > 10 µM | 0 | 0 | 0 | 0 | 0 | 95.8% | 98.7% | 96.6% | 98% | 100% | 106% | 104% | 93.9% | 94.7% | 94.6% | 97.9% | 104% | 94.4% | 93.5% | 98.6% | 101% | 85.2% | 96.3% | 106% | 102% | 104% | 106% | 89.4% | 113% | 98.8%
4 | CC1(C)Oc2ccc(C#N)cc2[C@H](N(Cc2ncc[nH]2)c2ccc(Cl)cc2)[C@H]1O | > 10 µM | > 10 µM | > 10 µM | > 10 µM | > 10 µM | 0 | 0 | 0 | 0 | 0 | 93.8% | 93% | 95.2% | 97.2% | 102% | 106% | 101% | 98% | 103% | 89.4% | 101% | 103% | 103% | 103% | 96.8% | 107% | 109% | 98% | 103% | 114% | 103% | 104% | 105% | 102% | 99.2%
5 | CCCn1c(=O)c(C)cn2nc(N)nc12 | > 10 µM | > 10 µM | > 10 µM | > 10 µM | > 10 µM | 0 | 0 | 0 | 0 | 0 | 90.1% | 103% | 96% | 97.1% | 97.7% | 91.7% | 91.5% | 102% | 99.5% | 112% | 100% | 97.3% | 104% | 98.9% | 101% | 96.9% | 95% | 93.8% | 98.3% | 107% | 105% | 102% | 102% | 111% | 99%
6 | CCN(CC)CCOc1ccc(Nc2ncc3cc(-c4c(Cl)cccc4Cl)c(=O)n(C)c3n2)cc1 | 0.465 µM | 0.532 µM | 0.329 µM | 0.266 µM | 0.712 µM | 15.3 | 13.5 | 17.5 | 18.4 | 12.5 | 95% | 95.3% | 88.9% | 26.6% | -0.1% | 102% | 102% | 80.7% | 41.7% | 5.4% | 99.1% | 104% | 90.8% | 10.4% | -0.1% | 111% | 97.9% | 82.2% | 11.3% | 0.1% | 98.8% | 99.5% | 80.3% | 49% | 2.3%
7 | CN(C)Cc1cccc(N/C(=C2\C(=O)Nc3cc(C(N)=O)ccc32)c2ccccc2)c1 | > 10 µM | > 10 µM | > 10 µM | > 10 µM | > 10 µM | 0 | 0 | 0 | 0 | 0 | 98.3% | 102% | 95.6% | 96.2% | 102% | 102% | 99.7% | 100% | 88.3% | 107% | 96.6% | 94.8% | 99% | 93.5% | 101% | 106% | 105% | 89.4% | 112% | 112% | 103% | 92.7% | 96.3% | 95.6% | 96%
8 | COC1(C[S@@+]([O-])c2ccccc2)CCN(CCc2c[nH]c3ccc(F)cc23)CC1 | > 10 µM | > 10 µM | > 10 µM | > 10 µM | > 10 µM | 0 | 0 | 0 | 0 | 0 | 103% | 101% | 92.5% | 102% | 93.8% | 93.6% | 99.1% | 87.1% | 102% | 90.3% | 96.2% | 95.9% | 100% | 96.5% | 99.9% | 95.9% | 88.4% | 86.6% | 96.6% | 84.1% | 100% | 94.6% | 99% | 101% | 100%
9 | COc1ccc2cc(OCC3(C(=O)O)CN(C(=O)c4ccc(F)cc4)C3)ccc2c1 | > 10 µM | > 10 µM | > 10 µM | > 10 µM | > 10 µM | 0 | 0 | 0 | 0 | 0 | 99.2% | 96.9% | 99.5% | 96.2% | 95% | 93.5% | 102% | 94.8% | 93.8% | 99% | 94.3% | 108% | 96.1% | 97.9% | 95.8% | 106% | 88.7% | 100% | 93% | 96.9% | 106% | 95.4% | 104% | 110% | 102%
10 | FCc1ccc(OCCOc2ccc(Cl)cc2Cl)c(Cl)n1 | > 10 µM | > 10 µM | > 10 µM | > 10 µM | > 10 µM | 0 | 1.9 | 0 | 0.1 | 0 | 95.2% | 105% | 96.6% | 103% | 103% | 92.7% | 92.8% | 107% | 90.5% | 77% | 100% | 96.4% | 102% | 94.4% | 92.7% | 94.8% | 97.1% | 98.9% | 104% | 86.3% | 101% | 101% | 101% | 97.9% | 92.4%
11 | NS(=O)(=O)NCCNc1nonc1/C(=N/O)Nc1ccc(F)c(Br)c1 | > 10 µM | > 10 µM | > 10 µM | > 10 µM | > 10 µM | 0 | 0 | 0 | 0 | 0 | 100% | 98.9% | 98.2% | 94.5% | 107% | 89.9% | 100% | 98% | 102% | 96.4% | 93.6% | 102% | 96.2% | 102% | 95% | 100% | 96% | 103% | 94.8% | 102% | 100% | 96.2% | 93.7% | 95% | 95.4%
12 | N[C@@H](CCNCc1ccc(Cl)cc1)C(=O)N1CCCCC1 | > 10 µM | > 10 µM | > 10 µM | > 10 µM | > 10 µM | 0 | 0 | 0 | 0 | 0 | 94.1% | 99.3% | 91% | 100% | 103% | 95.9% | 94.3% | 101% | 96.6% | 98.4% | 98.9% | 99% | 104% | 99.5% | 101% | 101% | 109% | 102% | 112% | 95.9% | 108% | 98.1% | 101% | 101% | 93.2%
13 | O=C(N[C@H]1CN2CCC1CC2)c1ccc(Cl)cc1 | > 10 µM | > 10 µM | > 10 µM | > 10 µM | > 10 µM | 0 | 0 | 0 | 0 | 0 | 96.7% | 94.7% | 95.4% | 92.7% | 92.5% | 98.5% | 97.8% | 103% | 98.3% | 92.6% | 102% | 97.4% | 99.9% | 95.7% | 101% | 97.2% | 92.2% | 93.7% | 102% | 94.3% | 99.6% | 88.7% | 99.6% | 99.8% | 95.6%
14 | O=C(Nc1cnccc1Cl)N1CCN(Cc2ccc3c(c2)OC(F)(F)O3)CC1 | > 10 µM | > 10 µM | > 10 µM | 2.06 µM | > 10 µM | 0 | 1 | 0 | 4.7 | 0 | 108% | 103% | 103% | 100% | 92.4% | 97.7% | 101% | 94% | 90.3% | 81% | 99.8% | 97.5% | 99.1% | 98.8% | 94% | 95.6% | 100% | 100% | 91.6% | 39.3% | 92.4% | 100% | 95.2% | 99% | 92.8%
